Earlier results, collected in patent US6623775B2, “Treating or preventing illness growth of Clostridium difficile” (S.S. Steiner, Inc., priority 1997, dated 2003).

Conditions: degree of ionization taken into account

## CC(C)=CCC(=O)[C@@]1(O)C(O)=C(C(=O)CC(C)C)C(=O)[C@H]1CC=C(C)C (relative stereo) [trans-isohumulone]
  Antibacterial activity relative to colupulone: 11 times
  Antibacterial activity relative to humulone: about 20 times
  Antibacterial activity relative to trans-humulinic acid: nine
